The NIST ThermoML archive (doi:10.1021/je200371n)
Numbers after ± are expanded uncertainties.

Settings: Gas

C [methane]
Settings | viscosity [mPa·s]
289.05 K, Mass density=0.498 kg/m3 | 0.01081 ± 0.00023
290.41 K, Mass density=0.498 kg/m3 | 0.01083 ± 0.00023
291.93 K, Mass density=0.344 kg/m3 | 0.01089 ± 0.00023
292.96 K, Mass density=0.344 kg/m3 | 0.01092 ± 0.00023
296.43 K, Mass density=0.498 kg/m3 | 0.01103 ± 0.00023
296.57 K, Mass density=0.498 kg/m3 | 0.01105 ± 0.00023
297.08 K, Mass density=0.344 kg/m3 | 0.01106 ± 0.00023
323.43 K, Mass density=0.498 kg/m3 | 0.01189 ± 0.00024
323.86 K, Mass density=0.344 kg/m3 | 0.01191 ± 0.00024
350.55 K, Mass density=0.344 kg/m3 | 0.01273 ± 0.00026
350.64 K, Mass density=0.498 kg/m3 | 0.01272 ± 0.00026
378.15 K, Mass density=0.344 kg/m3 | 0.01356 ± 0.00026
378.25 K, Mass density=0.498 kg/m3 | 0.01355 ± 0.00026
405.88 K, Mass density=0.344 kg/m3 | 0.01436 ± 0.00027
406.03 K, Mass density=0.498 kg/m3 | 0.01436 ± 0.00027
433.83 K, Mass density=0.344 kg/m3 | 0.01514 ± 0.00028
434.02 K, Mass density=0.498 kg/m3 | 0.01514 ± 0.00028
461.75 K, Mass density=0.498 kg/m3 | 0.0159 ± 0.00029
461.85 K, Mass density=0.344 kg/m3 | 0.01591 ± 0.00029
490.13 K, Mass density=0.344 kg/m3 | 0.01666 ± 0.00029
490.15 K, Mass density=0.498 kg/m3 | 0.01665 ± 0.00029
518.8 K, Mass density=0.498 kg/m3 | 0.0174 ± 0.0003
518.83 K, Mass density=0.344 kg/m3 | 0.01739 ± 0.0003
542.36 K, Mass density=0.498 kg/m3 | 0.01798 ± 0.00031
542.6 K, Mass density=0.344 kg/m3 | 0.01799 ± 0.00031
565.1 K, Mass density=0.498 kg/m3 | 0.01854 ± 0.00032
565.38 K, Mass density=0.344 kg/m3 | 0.01856 ± 0.00032
593.84 K, Mass density=0.498 kg/m3 | 0.01924 ± 0.00032
594.08 K, Mass density=0.344 kg/m3 | 0.01925 ± 0.00032
623.05 K, Mass density=0.498 kg/m3 | 0.01993 ± 0.00034
623.33 K, Mass density=0.344 kg/m3 | 0.01995 ± 0.00033
652.07 K, Mass density=0.498 kg/m3 | 0.02061 ± 0.00036
652.41 K, Mass density=0.344 kg/m3 | 0.02062 ± 0.00034
681.93 K, Mass density=0.498 kg/m3 | 0.02127 ± 0.00035
682.14 K, Mass density=0.344 kg/m3 | 0.0213 ± 0.00035

S [hydrogen sulfide]
Mass density=0.74 kg/m3
Settings | viscosity [mPa·s]
291.61 K | 0.01186 ± 0.00034
292.3 K | 0.01186 ± 0.00034
292.46 K | 0.01187 ± 0.00034
292.77 K | 0.01188 ± 0.00034
296.89 K | 0.01207 ± 0.00034
297.01 K | 0.01206 ± 0.00034
323.94 K | 0.01319 ± 0.00035
323.96 K | 0.01318 ± 0.00035
350.47 K | 0.01429 ± 0.00037
350.59 K | 0.0143 ± 0.00037
378.01 K | 0.01543 ± 0.00038
378.19 K | 0.01544 ± 0.00038
405.76 K | 0.01656 ± 0.00039
405.86 K | 0.01657 ± 0.00039
433.66 K | 0.01769 ± 0.00041
433.81 K | 0.0177 ± 0.00041
461.72 K | 0.01881 ± 0.00042
461.92 K | 0.01882 ± 0.00042
490.09 K | 0.01993 ± 0.00043
490.2 K | 0.01992 ± 0.00043
518.68 K | 0.021 ± 0.00043
518.75 K | 0.021 ± 0.00043
542.48 K | 0.0219 ± 0.00046
542.61 K | 0.0219 ± 0.00046
565.19 K | 0.02274 ± 0.00046
565.29 K | 0.02275 ± 0.00046
593.95 K | 0.02379 ± 0.00047
594.02 K | 0.02379 ± 0.00047
623.07 K | 0.02482 ± 0.00048
623.19 K | 0.02482 ± 0.00048
652.3 K | 0.02584 ± 0.0005
652.32 K | 0.02584 ± 0.0005
681.36 K | 0.02682 ± 0.00051
682.03 K | 0.02684 ± 0.00051
